Reference: ChEMBL document CHEMBL1201862, “PubChem BioAssay data set” (2004)
Calls of active or inactive are those of the source.

Tests used:
[1] = system: Streptococcus sp. 'group A'; assay: Streptococcus pyogenes SK(-)GAS viability under kanamycin – luminescence, BacTiterGlo, confirmation, counter-screen for streptokinase expression inhibitor project, dose response (AID 1900); format: functional, organism-based
Streptokinase A [2] = target: T1, Streptokinase A (Streptococcus pyogenes serotype M1, UniProt P10520); assay: viability-normalized secreted streptokinase activity reduction – plasminogen activation absorbance, OD405, dose response (AID 1914); format: functional, Streptococcus pyogenes M1 GAS;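 note: secreted streptokinase activity via plasminogen activation per viability signal from cell pellet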
T1 sequence (P10520 whole entry): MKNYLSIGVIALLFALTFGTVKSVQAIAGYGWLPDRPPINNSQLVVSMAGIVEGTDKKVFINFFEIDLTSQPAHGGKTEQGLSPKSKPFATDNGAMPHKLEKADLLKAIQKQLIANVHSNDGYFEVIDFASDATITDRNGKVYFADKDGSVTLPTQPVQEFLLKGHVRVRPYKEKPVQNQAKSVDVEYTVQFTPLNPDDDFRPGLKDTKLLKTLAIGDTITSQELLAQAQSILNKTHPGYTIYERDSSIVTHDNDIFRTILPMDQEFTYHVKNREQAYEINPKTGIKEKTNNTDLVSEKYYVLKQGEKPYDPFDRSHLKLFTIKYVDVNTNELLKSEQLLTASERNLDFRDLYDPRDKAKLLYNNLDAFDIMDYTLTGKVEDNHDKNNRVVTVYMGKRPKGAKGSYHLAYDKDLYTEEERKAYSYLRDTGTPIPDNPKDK

[3] = target: Luciferin 4-monooxygenase (Photinus pyralis, UniProt P08659); assay: inhibition of purified Photinus pyralis luciferase – biochemical, luminescence, dose response (AID 1891)
[4] = Luminescence Cell-Based Dose Confirmation HTS to Identify Inhibitors of Platelet Dense Granule Release. [Related pubchem assays: 1663 (Primary HTS), 1678 (Summary of Project)]; format: functional
[5] = Fluorescence Cell-Based Dose Response to Identify Inhibitors of Thrombin Receptor-Activating Peptide SFLLRN-Mediated P-Selectin Induction on Platelets. [Related pubchem assays: 1663 (Primary HTS), 1889 (retest at dose ), 1891 (counterscreen), 1678 (Project Summary)]; format: functional
Streptococcus [6] = assay: GAS UMAA2166 growth inhibition – luminescence, BacTiterGlo, counter-screen for streptokinase expression inhibitor project, dose response (AID 1915); format: functional, organism-based;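 note: potency for reduction of bacterial viability or growth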
[7] = target: T2, Tyrosine-protein phosphatase non-receptor type 7 (Homo sapiens, UniProt P35236); assay: HePTP tyrosine phosphatase activity blockers – biochemical, absorbance, leukemia target, primary screen (AID 521); format: functional
T2 sequence (P35236 whole entry): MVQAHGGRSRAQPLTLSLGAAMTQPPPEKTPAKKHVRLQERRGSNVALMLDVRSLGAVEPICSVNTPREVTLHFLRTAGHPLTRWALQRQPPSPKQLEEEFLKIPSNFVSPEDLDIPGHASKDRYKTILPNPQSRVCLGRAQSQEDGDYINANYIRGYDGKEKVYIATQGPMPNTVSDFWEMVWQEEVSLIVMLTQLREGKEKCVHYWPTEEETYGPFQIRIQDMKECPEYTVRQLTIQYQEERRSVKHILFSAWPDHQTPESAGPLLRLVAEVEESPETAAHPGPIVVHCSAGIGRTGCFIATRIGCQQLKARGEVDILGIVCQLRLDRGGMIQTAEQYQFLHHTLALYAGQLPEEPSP

Galanin receptor type 2 = Galanin receptor type 2 (Homo sapiens, UniProt O43603); assay: Dose Response cell-based high-throughput screening assay to identify antagonists of galanin receptor 2 (GALR2). [Related pubchem assays: 828, 866 ]; format: functional
Jurkat = assay: blockers of NF-kB activation in T cells – Jurkat, luciferase reporter, luminescence, B- and T-cell, dose response (AID 489004); format: functional, cell-based; settings: Homo sapiens;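 note: NF-kB luciferase reporter Jurkat cells stimulated with PMA plus ionomycin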
[8] = HEK-293T viability loss, compound-treated – cell-based, uHTS hits, cytotoxicity control for B/T-cell NF-kB inhibitor project, dose response (AID 489019); format: functional;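 note: IC50 reflects cytotoxicity as loss of cell viability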
INS1 = assay: INS-1E survival protection against cytokine death – cell-based, luminescence, retest, dose response (AID 449756); format: functional; settings: Rattus norvegicus;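 note: cell death triggered by IL-1 beta plus TNF-alpha plus IFN-gamma mixture; protective hits raise ATP signal compared with cytokine alone wells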
[9] = reduction of Shn3 3'UTR-driven luciferase in osteoblasts – cell-based, Clone20 osteoblasts, firefly luciferase, cherry-picked, dose response (AID 624132); format: functional;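 note: firefly luciferase luminescence from reporter carrying the Shn3 3'UTR in osteoblasts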
[10] = loss of viability in HepG2 cells – cell-based, CellTiter-Glo, cherry-picked, cytotoxicity control for Shn3 inhibitor project, dose response (AID 624134); format: functional
[11] = non-specific 3'UTR reporter inhibition in Clone20-Shn3RL – cell-based, Renilla luciferase, cherry-picked, counter-screen for Shn3 inhibitor project, dose response (AID 624133); format: functional
[12] = blockers of HIV-1 envelope-mediated cell-cell fusion – cherry-pick, dose response (AID 652057); format: functional, cell-based
[13] = blockers of HIV-1 ZM109 envelope-driven cell-cell fusion – HeLa effector, CEM target cells, luciferase, cherry-pick, dose response (AID 652058); format: functional, cell-based;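 note: luciferase signal from HIV-1 Env mediated cell-cell fusion of effector and target cells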
[14] = off-target signal loss in HeLa-CEM21 co-culture – HeLa F-luc CTL cells, cherry-picked, counter-screen for HIV-1 Env fusion inhibitor project, dose response (AID 652040); format: functional, cell-based;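 note: potency for signal decrease marking cytotoxic or nonspecific inhibition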
[15] = HIV-1 AD8 envelope cell-cell fusion blockers – cherry-pick, dose response (AID 652062); format: functional, cell-based;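 note: luciferase signal from cell-cell fusion driven by HIV-1 clade B AD8 Env; potency is for inhibitors of fusion seen as a drop in luminescence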
[16] = target: COUP transcription factor 2 (Homo sapiens, UniProt P24468); assay: Luminescence-based cell-based high throughput dose response assay to identify inhibitors of COUP-TFII (NR2F2).; format: functional;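 note: HEK293 cells transiently cotransfected with COUP-TFII expression vector and reporter; luciferase reporter luminescence driven by COUP-TFII from the pX2-168 reporter plasmid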
[17] = viability loss in CEM21 cells – cell-based, plate reader, dry powder, cytotoxicity control, dose response (AID 687026); format: functional
Streptokinase A [18] = target: T1, Streptokinase A; assay: Absorbance Microorganism-Based Dose Response Follow up to Identify Inhibitors of Streptokinase Expression. [Related pubchem assays: 1677 (Project Summary), 1915, 1914, 1902 (Retest at Dose), 1900 (Counter Screen), 1662 (Primary HTS)]; format: functional, Streptococcus pyogenes M1 GAS
Streptococcus [19] = assay: GAS bacterial viability reduction – luminescence, BacTiter-Glo, strain UMAA2166, counter-screen for streptokinase expression inhibitor project, dose response (AID 2477); format: functional, organism-based
Vero = assay: Vero cell viability after compound exposure – synthesized analogs, set II, cytotoxicity control for West Nile virus antiviral project, SAR follow-up (AID 2402); format: functional; settings: Chlorocebus sabaeus

Luciferin 4-monooxygenase, sequence (P08659 whole entry): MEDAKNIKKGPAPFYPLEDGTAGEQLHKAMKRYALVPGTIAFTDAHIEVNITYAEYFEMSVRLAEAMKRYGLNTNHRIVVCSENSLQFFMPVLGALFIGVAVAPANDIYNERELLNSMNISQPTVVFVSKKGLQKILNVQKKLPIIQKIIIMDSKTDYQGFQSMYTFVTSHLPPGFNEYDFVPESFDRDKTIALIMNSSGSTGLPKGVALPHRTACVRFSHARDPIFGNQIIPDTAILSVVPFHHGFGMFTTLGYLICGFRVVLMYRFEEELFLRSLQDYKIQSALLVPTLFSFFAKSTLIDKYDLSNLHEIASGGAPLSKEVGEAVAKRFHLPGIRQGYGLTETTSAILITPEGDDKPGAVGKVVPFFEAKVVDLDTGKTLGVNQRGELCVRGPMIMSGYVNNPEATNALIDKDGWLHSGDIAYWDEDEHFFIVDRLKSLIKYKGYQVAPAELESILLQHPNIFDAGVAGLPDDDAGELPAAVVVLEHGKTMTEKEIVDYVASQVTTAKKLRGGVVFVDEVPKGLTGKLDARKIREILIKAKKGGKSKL
Galanin receptor type 2, sequence (O43603 whole entry): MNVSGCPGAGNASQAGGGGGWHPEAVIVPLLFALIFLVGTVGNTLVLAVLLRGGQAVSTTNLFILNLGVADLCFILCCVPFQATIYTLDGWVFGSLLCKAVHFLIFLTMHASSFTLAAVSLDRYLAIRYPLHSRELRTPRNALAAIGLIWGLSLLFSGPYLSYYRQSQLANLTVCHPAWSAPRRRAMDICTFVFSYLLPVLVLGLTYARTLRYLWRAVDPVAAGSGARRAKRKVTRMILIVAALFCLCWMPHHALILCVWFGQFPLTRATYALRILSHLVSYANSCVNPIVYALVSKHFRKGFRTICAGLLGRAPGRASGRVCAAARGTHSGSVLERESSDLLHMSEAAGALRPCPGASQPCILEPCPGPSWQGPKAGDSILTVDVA
COUP transcription factor 2, sequence (P24468 whole entry): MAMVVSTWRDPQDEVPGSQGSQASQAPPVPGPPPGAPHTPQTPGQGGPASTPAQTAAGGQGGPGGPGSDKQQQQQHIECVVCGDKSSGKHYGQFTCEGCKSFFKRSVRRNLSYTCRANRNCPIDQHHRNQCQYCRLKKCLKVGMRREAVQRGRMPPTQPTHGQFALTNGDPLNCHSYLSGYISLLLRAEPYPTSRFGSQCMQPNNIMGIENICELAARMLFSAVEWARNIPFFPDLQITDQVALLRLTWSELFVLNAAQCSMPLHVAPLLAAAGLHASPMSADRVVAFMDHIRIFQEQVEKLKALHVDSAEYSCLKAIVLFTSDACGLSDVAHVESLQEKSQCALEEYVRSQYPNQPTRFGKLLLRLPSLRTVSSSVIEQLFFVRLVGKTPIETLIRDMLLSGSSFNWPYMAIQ

Which EC50 [1] does the source give for `CC(=O)Oc1ccc(-c2nc(-c3cccnc3)no2)cc1` here?
The EC50 was 4.89 µM (active).

What about the EC50 (Streptokinase A [2]) of the same molecule?
Its EC50 is > 150 µM (not active).

What about the EC50 [3] of the same molecule?
The EC50 was 8.16 µM (active).

What about the EC50 [4] of the same molecule?
Its EC50 is < 0.701 µM (active).

What about the EC50 [5] of the same molecule?
Its EC50 is 30 µM (not active).

What about the EC50 (Streptococcus [6]) of the same molecule?
The EC50 was 17.3 µM (active).

Which IC50 [7] does the source give for `COc1ccccc1C(=O)Nc1ccccc1C(=O)N1CCCC1` here?
Its IC50 is > 100 µM (not active).

For `CCOc1ccc(S(=O)(=O)NCc2ccncc2)cc1`, which IC50 (Galanin receptor type 2) is on record?
The IC50 was > 42 µM (not active).

And the IC50 (Jurkat)?
Its IC50 is > 80 µM (inactive).

What about the IC50 [8] of the same molecule?
Its IC50 is > 80 µM (inactive).

And the AC50 (INS1)?
The AC50 was 1.08 µM (active).

And the AC50 [9]?
The AC50 was 0.261 µM (active).

What about the AC50 [10] of the same molecule?
The AC50 was 0.603 µM (active).

And the AC50 [11]?
Its AC50 is 10.5 µM (active).

And the AC50 [12]?
The AC50 was 1.36 µM (active).

And the AC50 [13]?
The AC50 was < 0.26 µM (active).

What about the AC50 [14] of the same molecule?
The AC50 was > 70 µM (inactive).

And the AC50 [15]?
The AC50 was 2.72 µM (active).

And the IC50 [16]?
The IC50 was 2.27 µM (active).

What about the AC50 [17] of the same molecule?
Its AC50 is > 70 µM (inactive).

With `CCCOc1ccc(-c2nc(Oc3ccccc3)c3ccccc3n2)cc1` as the molecule, how does the EC50 (Streptokinase A [18]) read?
Its EC50 is 71.6 µM (active).

And the EC50 (Streptococcus [19])?
The EC50 was > 500 µM (not active).

For `COc1ccc(-c2csc(N(C)C(=O)c3ccccc3Cl)n2)cc1`, which CC50 (Vero) is on record?
Its CC50 is > 50 µM (active).
